Laboratory results as given in the RepoRT retention time repository.

Assay: Waters SunFire C18, 150 × 2.1 mm, 3.5 µm, 25 °C, 0.25 mL/min, estimated dead time 1.3 min; A: water + 0.1% formic acid; B: methanol; gradient (min/%B) 0/5 30/100
Details: stereoisomer not certain

| LC retention time [min] | Compound |
| --- | --- |
| 14.1 | COC(=O)C1C(O)CCC2CN3CCc4c([nH]c5cc(OC)ccc45)C3CC21 (centres undefined) |
| 25.8 | CCC12CC34CC(C(=O)OC)=C5Nc6ccccc6C56CCN3C1C1CC3(CC)C5OC5CN5CCC7(c8ccccc8N(C64)C17O2)C53 (centres undefined) |
| 12.6 | CC=C1CN(C)C2Cc3c([nH]c4ccccc34)C(c3ccc4c(CCN)c[nH]c4c3)CC1C2C(=O)OC (centres undefined) |
| 18.3 | C=Cc1cncc2c(=O)n3c(cc12)-c1[nH]c2ccccc2c1CC3 |
| 25.1 | COC(=O)C1CC23C=CC(=O)N2CCC2(C(=O)OC)c4ccccc4N(C(=O)OC)C12CC3 (centres undefined) |
| 17.8 | CC=C1CN2C3CC1C1(C(=O)OC)C2CC2(c4ccccc4N(C)C32)C1OC(=O)C=Cc1cc(OC)c(OC)c(OC)c1 (centres undefined) |
| 15.6 | CC=C1CN2C(C3C(=O)N4c5ccccc5C56CCN7CC8=CCOC3C(C8CC75)C46)CC34c5ccccc5N5C(=O)CC=C(C1CC23)C54 (centres undefined) |
| 15.1 | COC(=O)C1CC23CCCN4C(=O)CC5(c6ccccc6N(C)C15CC2)C43 (centres undefined) |
| 20 | CCC12CCCN3CCc4c(n(c5ccccc45)C(O)(C(=O)OC)C1)C32 (centres undefined) |
| 17.4 | CC=C1CN2CCC34CC5C6CC7c8c(c9ccccc9n8C)CC(C6COC5(C)OC35C2CC1C(C(=O)OC)N5c1ccccc14)N7C (centres undefined) |
| 16.9 | CC=C1CN2CCC34c5cc(-c6cc7c(cc6OC)C68CCN9CC(=CC)C(CCC96N7C)C8C(=O)OC)c(OC)cc5N(C)C3C2CC1C4C(=O)OC (centres undefined) |
| 16.1 | COC(=O)C1C2CC3c4[nH]c5cc(OC)ccc5c4CCN3CC2CC(O)C1OC (centres undefined) |
| 22.6 | CCC1CN(C)C2Cc3c([nH]c4ccccc34)C(c3cc4c5c([nH]c4cc3OC)C3(C(=O)OC)CC4CC(CC)C3N(CC5)C4=O)CC1C2C(=O)OC (centres undefined) |
| 15.1 | CCC12CCCN(CCc3c([nH]c4ccccc34)CC1)C2 (centres undefined) |
| 18.1 | CCC12CCCN3C(=O)C=C(c4ccccc4NC(=O)CC1)C32O (centres undefined) |
| 18.6 | CCC1(O)CC2CN(CCc3c([nH]c4ccccc34)C(C(=O)OC)(c3cc4c(cc3OC)N(C)C3C(O)(C(=O)OC)C(OC(C)=O)C5(CC)C=CCN6CCC43C65)C2)C1 (centres undefined) |
| 11.8 | CC1OCC2C3CC4(O)N(CCC45c4ccccc4N(C(=O)CO)C25)CC13 (centres undefined) |
| 16.3 | CC=C1CN(C)C2Cc3c(n(C)c4ccccc34)C(=O)CC1C2C(=O)OC (centres undefined) |

| LC retention time [min] | Compound |
| --- | --- |
| 28.8 | COC(=O)C1C(O)CCC2CN3CCc4c([nH]c5ccc(C)cc45)C3CC21 (centres undefined) |
| 14.8 | CC=C1C[N+]2(C)CCc3c4n(c5ccccc35)C(CO)C1CC42 (centres undefined) |
| 15.3 | CC=C1C2CC[N+]3([O-])CCC4(C(=C2C(=O)OC)Nc2ccccc24)C13 (centres undefined) |
| 16 | CCC12CC(C(=O)OC)=C3Nc4ccccc4C34CCN(C(c3ccc5c(c3)C3CCN6CC7OC7C7(CC)CCC3(N5)C67)C3OC31)C42 (centres undefined) |
| 17.2 | COC(=O)C1CC23CCCN4CCC5(c6ccccc6N(C)C15CC2)C43 (centres undefined) |
| 13.4 | CC=C1CNC2Cc3c([nH]c4ccccc34)C(=O)CC1C2C(=O)OC (centres undefined) |
| 14.1 | CCC1CN2CCc3c([nH]c4ccccc34)C2CC1CCO (centres undefined) |
| 15.3 | CC=C1CN(C)C2Cc3c([nH]c4ccccc34)C(=O)CC1C2C(=O)OC (centres undefined) |
| 15.8 | CC=C1C[n+]2ccc3c([nH]c4ccccc43)c2CC1C(C(=O)OC)C1OCC2C3CC4N(CCC45c4ccccc4N1C25)CC3CC (centres undefined) |
| 21.9 | COC(=O)C1C2CC3c4[nH]c5cc(OC)ccc5c4CCN3CC2CC(OC(=O)c2cc(OC)c(OC)c(OC)c2)C1OC (centres undefined) |
| 15.3 | CC=C1CN(C)C2Cc3c([nH]c4ccccc34)C(c3ccc4c5c([nH]c4c3)C3CC4CC(CC)C3N(CC5)C4)CC1C2C(=O)OC (centres undefined) |
| 13.8 | CC=C1CN2C3CC1C(C1OCC4C5CC6N(CCC67c6ccccc6N1C47)CC5CC)C2Cc1c3[nH]c2ccccc12 (centres undefined) |
| 18 | COC(=O)C1CC23CCCN4CCC5(c6cc(Cc7ccc8c(c7)C79CCN%10CCCC%11(CCC7(N8)C(C(=O)O)C%11)C%109)ccc6N(C)C15CC2)C43 (centres undefined) |
| 18.2 | CC=C1CN2CCC3=C([NH2+]c4ccccc43)C2CC1C(Cc1cn2c(c3nc4ccccc4c1-3)CC1C(C(=O)OC)=COC(C)C1C2)C(=O)OC (centres undefined) |
| 21.5 | Cc1[nH]ccc2c(C)c3nc4ccccc4c3cc12 |
| 13.2 | COC(=O)C1=COC(C)C2Cn3ccc4c5ccccc5nc-4c3CC12 (centres undefined) |
| 10.8 | COC(=O)C1=C2Nc3ccccc3C23CCN2CC(C(C)O)C1CC23 (centres undefined) |
| 16.7 | CCC12C=CCN3CCC4(C(=C(C(=O)OC)C1)Nc1cc(O)c(C5C=CC6(CC)CC(C(=O)OC)=C7Nc8c(O)cccc8C78CCN5C68)cc14)C32 (centres undefined) |

| Compound | LC retention time [min] |
| --- | --- |
| CC=C1CN2C3CC1C1(C(=O)OC)C2CC2(c4ccccc4N(C)C32)C1O (centres undefined) | 12 |
| CCC1=CC2CN3CCc4c([nH]c5ccccc45)C(C(=O)OC)(C2)C13 (centres undefined) | 16.1 |
| CCC1C2CCN3CCC4(C(=C2C(=O)OC)Nc2ccccc24)C13 (centres undefined) | 13.7 |
| CC=C1CN(C)CCC23C(=O)CC1C1COC(O)C(=O)N(c4ccccc42)C13 (centres undefined) | 12.1 |
| C=CC1CN2CCc3c([nH]c4ccccc34)C2CC1C(=COC)C(=O)OC (centres undefined) | 16.7 |
| CC=C1C[n+]2ccc3c([nH]c4ccccc43)c2CC1C1=CN2c3ccccc3C34CCN5CC(=CC)C(CC53)C(C1O)C24 (centres undefined) | 15.2 |
| CCC1CC2CN3CCc4c([nH]c5ccccc45)C(C(=O)OC)(C2)C13 (centres undefined) | 16.9 |
| COc1cc2c(cc1OC)C13CCN(C)CC4=CCOC5CC(=O)N2C1C5C4CC3=O (centres undefined) | 13.1 |
| CCC1NC2CC3(C(=O)N(OC)c4cc(OC)ccc43)C3CC1C2CO3 (centres undefined) | 16.3 |
| CCC1CN(C)CC2(C(=O)OC)Cc3c([nH]c4ccccc34)C(=O)CC12 (centres undefined) | 15 |
| C=CC1CN2CCC1CC2c1[nH]c2ccccc2c1CCO (centres undefined) | 16.7 |
| O=C1CC=C2C3CC4N(CCC45c4ccccc4N1C25)CC3=CCO (centres undefined) | 12.1 |
| CC=C1CN(C)C2Cc3c([nH]c4ccccc34)C(c3cc4[nH]c5c(c4cc3OC)CCN3CC4CC(CC)C3C5(C(=O)OC)C4)CC1C2C(=O)OC (centres undefined) | 17.5 |
| CC=C1CN2C3CC1C(CO)(C(=O)OC)C2Cc1c3n(C)c2ccccc12 (centres undefined) | 14.2 |
| OC1OCC=C2CN3CCC45c6ccccc6NC4C1C2CC35 (centres undefined) | 9.62 |
| CCC1CN2CCC3(C(=O)Nc4ccccc43)C2CC1C(=COC)C(=O)OC (centres undefined) | 16.4 |
| C=CC1C(OC2OC(CO)C(O)C(O)C2O)OC=C(C(=O)OC)C1CC1NCCc2c1[nH]c1ccccc21 (centres undefined) | 17 |
| CC=C1CN2C3CC1C(C=O)C2Cc1c3[nH]c2ccccc12 (centres undefined) | 14.7 |
| CCC1CC2CN3CCc4c([nH]c5cc(OC)c(OC)cc45)C(C(=O)OC)(C2)C13 (centres undefined) | 16.3 |
| C=CC1CN2CCC3(C(=O)Nc4cc(O)ccc43)C2CC1CC1c2[nH]c3ccccc3c2CCN1C (centres undefined) | 11.9 |
| O=C1CC2OCC=C3CN4CCC56c7ccccc7N1C5C2C3CC46 (centres undefined) | 11 |
| CC=C1C[N+]2(C)C3CC1C(C(=O)[O-])C2Cc1c3[nH]c2ccccc12 (centres undefined) | 15.6 |
| CC=C1CN2C3CC1C(C(=O)OC)C2Cc1c3[nH]c2ccccc12 (centres undefined) | 16.2 |
